Source: EPA's CvTdb concentration-time database (doi:10.1093/toxsci/kfy020)

Tested on: rat
Assay: concentration in plasma after dosing
Conditions: dosed: Ondansetron, male, Sprague-Dawley

Cc1nccn1CC1CCc2c(c3ccccc3n2C)C1=O (stereo not given) [Ondansetron]
concentration in plasma [ng/mL]
Conditions | 1.0000000000 mg/kg | 4.0000000000 mg/kg | 8.0000000000 mg/kg | 20.0000000000 mg/kg
0.05 h, iv | 781 | 3050 | 6280 | 17600
0.05 h, oral | – | 70 | 100 | 491
0.25 h, iv | 231 | 830 | 1860 | 5550
0.5 h, iv | 129 | 429 | 960 | 2930
0.5 h, oral | – | 49.1 | 92 | 288
0.75 h, iv | 72.6 | 256 | 597 | 1860
1 h, iv | 47.1 | 176 | 379 | 1260
1 h, oral | – | 23.5 | 40.6 | 165
1 min, iv | 16200 | 37100 | 104000 | 175000
1.25 h, iv | 31.1 | 112 | 246 | 813
1.5 h, iv | – | 75.7 | 176 | 561
1.5 h, oral | – | – | 21.4 | 82.7
2 h, iv | – | 38.3 | 87.4 | 308
2 h, oral | – | – | – | 46.8
2.5 h, iv | – | – | 44.2 | 184
3 h, iv | – | – | 23.3 | 101
4 h, iv | – | – | – | 39.1
5 min, oral | – | 244 | 249 | 1110
7 min, iv | 420 | 1480 | 3240 | 10100
10 min, oral | – | 171 | 298 | 808
20 min, oral | – | 83.7 | 138 | 441
40 min, oral | – | 39.6 | 70 | 255
50 min, oral | – | 30.2 | 57.9 | 197
